Source: US20170209472A1, “PREVENTION OR TREATMENT OF FOOD ALLERGY IN INFANTS AND TODDLERS” (N.V. Nutricia, priority 2014, published 2017)

What was measured:
IL-33 [1] = assay: systemic IL-33 measured by ELISA in mice serum; format: in vivo; details: DON gavage; data not shown
Caco-2 cells = assay: IL-33 in DON-stimulated Caco-2 cells; format: cell-based; details: data not shown
IL-33 mRNA = details: distal small intestine, 6 h after oral DON gavage 25 mg/kg, vs control mice
IL-33 [2] = details: distal small intestine after DON gavage, vs control mice
[3] = system: whey protein allergy response; details: C3H/HeOuJ mice sensitized with low or high dose DON with or without whey; FIG. 2
[4] = water and polar solvents such as methanol and acetonitrile; cited from earlier work

CC1=C[C@H]2O[C@@H]3[C@H](O)C[C@](C)([C@@]2(CO)[C@H](O)C1=O)[C@]31CO1 [DON, (3α, 7α)-3,7,15-trihydroxy-12,13-epoxytrichothec-9-en-8-one]
systemic IL-33 in serum (IL-33 [1]): neither affected
IL-33 levels in the supernatant (Caco-2 cells): did not induce increased
IL-33 mRNA expression levels (Caco-2 cells): did not induce increased
IL-33 mRNA expression (IL-33 mRNA): increase
IL-33 production (immunohistochemistry) (IL-33 [2]): obviously increased
whey protein allergy response (ear swelling) [3]: significantly increases
solubility [4]: soluble
